# Measured values reported in publication PMC7818505 (Journal of Clinical Pharmacology, 2020).
# pIC50: −log10 of the molar value.
# Columns and labels:
# [1] = target: T1, CYP2C8 (Homo sapiens, UniProt P10632); test: Phase 1 clinical DDI study, pioglitazone probe with or without relacorilant; assay type: in vivo
# T1 sequence (P10632 1-490): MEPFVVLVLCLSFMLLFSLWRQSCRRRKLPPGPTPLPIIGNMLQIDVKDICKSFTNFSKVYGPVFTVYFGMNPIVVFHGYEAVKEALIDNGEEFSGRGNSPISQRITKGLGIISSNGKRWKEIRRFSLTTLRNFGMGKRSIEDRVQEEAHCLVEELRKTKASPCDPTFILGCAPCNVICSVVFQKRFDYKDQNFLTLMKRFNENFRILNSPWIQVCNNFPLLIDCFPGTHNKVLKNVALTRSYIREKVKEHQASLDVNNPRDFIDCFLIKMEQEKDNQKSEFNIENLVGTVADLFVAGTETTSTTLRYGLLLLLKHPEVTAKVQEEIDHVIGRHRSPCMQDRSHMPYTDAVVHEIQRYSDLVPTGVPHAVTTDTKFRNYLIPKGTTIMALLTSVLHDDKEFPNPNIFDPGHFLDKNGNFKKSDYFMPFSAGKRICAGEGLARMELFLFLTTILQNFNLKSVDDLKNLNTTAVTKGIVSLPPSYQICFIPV
# [2] = test system: CYP3A4; test: Phase 1 clinical DDI study, midazolam probe with or without relacorilant; assay type: in vivo, human
# [3] = target: CYP2C9 (Homo sapiens, UniProt P11712); details: background statement; cited from earlier work
# Sequence of CYP2C9 (P11712 whole entry): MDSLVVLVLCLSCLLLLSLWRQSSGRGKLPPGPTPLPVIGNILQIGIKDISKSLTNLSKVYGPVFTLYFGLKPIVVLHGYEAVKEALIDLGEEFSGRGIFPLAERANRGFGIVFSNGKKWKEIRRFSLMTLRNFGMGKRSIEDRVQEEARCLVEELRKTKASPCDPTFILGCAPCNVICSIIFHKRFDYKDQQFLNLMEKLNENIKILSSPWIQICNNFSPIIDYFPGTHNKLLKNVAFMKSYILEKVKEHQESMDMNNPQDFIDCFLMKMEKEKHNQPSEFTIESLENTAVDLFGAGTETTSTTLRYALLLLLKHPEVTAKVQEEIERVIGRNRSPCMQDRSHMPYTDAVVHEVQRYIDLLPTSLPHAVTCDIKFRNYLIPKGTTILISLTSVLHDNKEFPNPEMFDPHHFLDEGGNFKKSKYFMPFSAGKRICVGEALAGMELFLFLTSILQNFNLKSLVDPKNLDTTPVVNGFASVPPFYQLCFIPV
# [4] = target: CYP3A4 (Homo sapiens, UniProt P08684); test: biochemical
# Sequence of CYP3A4 (Homo sapiens, UniProt P08684) (P08684 whole entry): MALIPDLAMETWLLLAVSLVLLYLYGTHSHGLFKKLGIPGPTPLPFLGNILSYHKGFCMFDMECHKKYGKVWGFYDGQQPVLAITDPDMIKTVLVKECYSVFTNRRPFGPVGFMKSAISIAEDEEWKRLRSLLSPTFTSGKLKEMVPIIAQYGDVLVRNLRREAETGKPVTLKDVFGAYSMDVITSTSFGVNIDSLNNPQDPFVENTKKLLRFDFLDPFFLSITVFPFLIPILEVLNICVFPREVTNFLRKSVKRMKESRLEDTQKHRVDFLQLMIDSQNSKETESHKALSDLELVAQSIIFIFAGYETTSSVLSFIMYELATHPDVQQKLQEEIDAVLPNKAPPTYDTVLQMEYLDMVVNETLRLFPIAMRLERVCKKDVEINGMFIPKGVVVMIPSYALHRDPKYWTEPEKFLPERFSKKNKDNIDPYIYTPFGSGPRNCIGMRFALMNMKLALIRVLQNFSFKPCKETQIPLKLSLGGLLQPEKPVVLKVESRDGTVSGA
# [5] = test system: CYP1A2 messenger RNA; test: In vitro CYP induction assay, messenger RNA in cryopreserved human hepatocytes; assay type: in vitro ADME; details: 3 donors
# [6] = test system: progesterone receptor; details: background statement; cited from earlier work
# [7] = test system: CYP2B6 messenger RNA; test: In vitro CYP induction assay, messenger RNA in cryopreserved human hepatocytes; assay type: in vitro ADME; details: 3 donors
# [8] = both, human, plasma, po, 15 mg, probe pioglitazone
# [9] = pioglitazone + relacorilant (day 15) compared to pioglitazone alone (day 2)
# [10] = pioglitazone + relacorilant (day 15) vs pioglitazone alone (day 2)
# [11] = both, human, plasma, po, 2.5 mg, probe midazolam
compound,measurement,setting,value
"CCc1ccc(CCOc2ccc(CC3SC(=O)NC3=O)cc2)nc1 (centres unmarked) [Pioglitazone, pioglitazone]",AUC(0-inf),"[1]; both, human, plasma, po, 15 mg",5650 ng·h/mL
same,AUC(0-t),[1]; [8],5530 ng·h/mL
same,Cmax,[1]; [8],525 ng/mL
same,Tmax,[1]; [8],2 h
same,half-life,[1]; [8],10.4 h
same,"GLSM AUCinf lower with relacorilant than alone, pioglitazone",[1]; [9],~25%
same,"GLSM AUClast lower with relacorilant than alone, pioglitazone",[1]; [9],~25%
same,"GLSM Cmax lower with relacorilant than alone, pioglitazone",[1]; [9],approximately 22%
same,"AUCinf GLSM Ratio (90%CI), pioglitazone",[1]; [10],0.748 (0.681‐0.822)
same,"AUClast GLSM Ratio (90%CI), pioglitazone",[1]; [10],0.747 (0.681‐0.820)
same,"Cmax GLSM Ratio (90%CI), pioglitazone",[1]; [10],0.778 (0.697‐0.870)
"Cc1ncc2n1-c1ccc(Cl)cc1C(c1ccccc1F)=NC2 [Midazolam, midazolam]",AUC(0-inf),"[2]; both, human, plasma, po, 2.5 mg",36.4 ng·h/mL
same,AUC(0-t),[2]; [11],34.2 ng·h/mL
same,Cmax,[2]; [11],12.7 ng/mL
CC#C[C@]1(O)CC[C@H]2[C@@H]3CCC4=CC(=O)CCC4=C3[C@@H](c3ccc(N(C)C)cc3)C[C@@]21C [mifepristone],CYP2C9 inhibition in vivo (in words),[3],inhibits both CYP2C8 and CYP2C9 in vivo
"Cn1cc(S(=O)(=O)N2CCC3=Cc4c(cnn4-c4ccc(F)cc4)C[C@]3(C(=O)c3cc(C(F)(F)F)ccn3)C2)cn1 [Relacorilant, (R)‐(1‐(4‐fluorophenyl)‐6‐((1‐methyl‐1H‐pyrazol‐4‐yl)sulfonyl)‐4,4a,5,6,7,8‐hexahydro‐1H‐pyrazolo[3,4‐g]isoquinolin‐4a‐yl)(4‐(trifluoromethyl)pyridin‐2‐yl)methanone]",pIC50,[4],5.88
same,CYP3A inhibition in vivo (in words),"[2]; healthy subjects, relacorilant 350 mg once daily, midazolam probe",strong CYP3A inhibitor
same,induction of CYP1A2 (in words),[5],dose‐responsive induction of CYP1A2 was observed in all donors
same,affinity for the progesterone receptor (in words),[6],no affinity for the progesterone receptor
same,induction of CYP2B6 (in words),[7],No induction of CYP2B6 was observed in any donor
